The values that follow come from PubChem BioAssay (NCI).

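Cultured in 96-well plates, cells were exposed to test compound for 48 hours across five concentrations. GI50: concentration for 50% inhibition of growth. TGI denotes the concentration required for complete inhibition of growth.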 Some results are limits rather than exact numbers.

The first experiment has as its system SN12C renal. In words: NCI-60 cell line screen, 48 h.
In the case of `COc1ccc(Nc2c3ccccc3nc3occ(Cl)c23)cc1`, the GI50 is 0.0858 µM and the TGI amounted to 19 µM.

In the next experiment the test system is SNB-19 CNS. Description: NCI-60 cell line screen, 48 h.
Turning to `Nc1nc(SN=Nc2ccc(S(N)(=O)=O)cc2)c2[nH]cnc2n1`, the GI50 was above 78.6 µM and the TGI was above 100 µM.

With `COCCOc1cnc2ccn([C@H](C)c3nnc4c(F)cc(-c5cnn(C)c5)cn34)c(=O)c2c1`, the GI50 was above 100 µM and the TGI is above 100 µM.

Consider `CCc1ccccc1NC(=O)c1sc2nc3c(cc2c1N)C(=O)CCC3`, for which the GI50 was 0.801 µM and the TGI is above 100 µM.

Take `C[C@]12CC[C@@H]3c4ccc(O)cc4CC[C@H]3[C@@H]1CC[C@@H]2NS(=O)(=O)c1cccc(F)c1`: the GI50 is 5.5 µM and the TGI came out at 18.3 µM.

For the compound `CCOC(=O)c1c[nH]c2oc(/C=N/N3CC(CN4CCOCC4)OC3=O)cc2c1=O` (stereo not drawn), the TGI is above 100 µM.

For the compound `COc1ccc(-c2oc3cc(O)c(OC)c(O)c3c(=O)c2OC)cc1O`, the GI50 is 0.189 µM and the TGI is above 100 µM.

On to `Cc1c(C2=C(Br)C(=O)N(C)C2=O)c(=O)n(C)c(=O)n1C`, for which the TGI is above 100 µM.

As to `NC(CS/C(Cl)=C/Cl)C(=O)O` (stereo not drawn), the GI50 is 30.7 µM and the TGI was above 100 µM.

Turning to `CCn1c(CO)nn(-c2cc(O[C@@H](C)C(F)(F)F)c(C(=O)Nc3c(F)cccc3Cl)cc2F)c1=O`, the GI50 was below 0.01 µM and the TGI was above 100 µM.

In turn, `CC1CCC(=O)C(C(=O)CC2CC(=O)NC(=O)C2)C1` (stereo not drawn) showed a TGI above 100 µM.

`O=C(Nc1ccc(CO)cc1)c1coc2ccccc2c1=O`: the GI50 is above 100 µM and the TGI is above 100 µM.

`Cc1cc(N/N=C/c2nc(-c3ccc(Br)cc3)oc2C)c2cc(Br)ccc2n1`: the GI50 is 3.87 µM and the TGI is 23.4 µM.

As for `COc1ccc2c(c1)C(C)Cc1c(ncnc1-n1c(C)nc3ccccc31)N2C` (stereo not drawn), the GI50 is 4.45 µM and the TGI stood at 23.1 µM.

On to `COc1ccc2c(O)cc3c(c2c1)[C@H](CCl)CN3C(=O)c1cc2cc(NC(=O)CCN3CCOCC3)ccc2[se]1`, for which the GI50 is below 0.001 µM and the TGI is 0.233 µM.

For `COc1cc(C2=C(c3cn(C)c4ccccc34)COC2=O)cc(OC)c1OC`, the GI50 is 0.16 µM and the TGI is above 100 µM.

The compound `COc1ccc2c(c1)[C@@]13CCCC[C@H]1[C@@H](C2)N(C)CC3=O` returned a TGI above 100 µM.

Consider `COc1ccc(Nc2c3ccccc3nc3occ(Cl)c23)cc1`, for which the GI50 was 0.48 µM and the TGI was above 38.2 µM.

Another experiment concerns SR leukemia. Description: NCI-60 cell line screen, 48 h.
For the compound `Nc1nc(SN=Nc2ccc(S(N)(=O)=O)cc2)c2[nH]cnc2n1`, the GI50 was 0.186 µM and the TGI was above 100 µM.

As to `COCCOc1cnc2ccn([C@H](C)c3nnc4c(F)cc(-c5cnn(C)c5)cn34)c(=O)c2c1`, the GI50 was above 100 µM and the TGI is above 100 µM.

Take `CCc1ccccc1NC(=O)c1sc2nc3c(cc2c1N)C(=O)CCC3`: the GI50 was 0.406 µM and the TGI was above 100 µM.

In the case of `C[C@]12CC[C@@H]3c4ccc(O)cc4CC[C@H]3[C@@H]1CC[C@@H]2NS(=O)(=O)c1cccc(F)c1`, the GI50 is 2.35 µM and the TGI is 8.28 µM.

Compound `CCOC(=O)c1c[nH]c2oc(/C=N/N3CC(CN4CCOCC4)OC3=O)cc2c1=O` (stereo not drawn) showed a TGI above 100 µM.

For the compound `COc1ccc(-c2oc3cc(O)c(OC)c(O)c3c(=O)c2OC)cc1O`, the GI50 is 0.039 µM and the TGI is above 100 µM.

`Cc1c(C2=C(Br)C(=O)N(C)C2=O)c(=O)n(C)c(=O)n1C` had a TGI of 75.9 µM.

For the compound `NC(CS/C(Cl)=C/Cl)C(=O)O` (stereo not drawn), the GI50 is 34.9 µM and the TGI was above 100 µM.

As for `CCn1c(CO)nn(-c2cc(O[C@@H](C)C(F)(F)F)c(C(=O)Nc3c(F)cccc3Cl)cc2F)c1=O`, the GI50 is below 0.01 µM and the TGI is above 43.1 µM.

`CC1CCC(=O)C(C(=O)CC2CC(=O)NC(=O)C2)C1` (stereo not drawn) showed a TGI above 100 µM.

For `O=C(Nc1ccc(CO)cc1)c1coc2ccccc2c1=O`, the GI50 is above 100 µM and the TGI is above 100 µM.

As to `Cc1cc(N/N=C/c2nc(-c3ccc(Br)cc3)oc2C)c2cc(Br)ccc2n1`, the GI50 is 0.355 µM and the TGI is above 100 µM.

In the case of `COc1ccc2c(c1)C(C)Cc1c(ncnc1-n1c(C)nc3ccccc31)N2C` (stereo not drawn), the GI50 is 0.345 µM and the TGI stood at 5.54 µM.

Turning to `COc1ccc2c(O)cc3c(c2c1)[C@H](CCl)CN3C(=O)c1cc2cc(NC(=O)CCN3CCOCC3)ccc2[se]1`, the GI50 is below 0.001 µM and the TGI is above 10 µM.

As to `COc1cc(C2=C(c3cn(C)c4ccccc34)COC2=O)cc(OC)c1OC`, the GI50 is 0.0219 µM and the TGI is above 100 µM.

Take `COc1ccc2c(c1)[C@@]13CCCC[C@H]1[C@@H](C2)N(C)CC3=O`: the TGI amounted to 42 µM.

For the compound `COc1ccc(Nc2c3ccccc3nc3occ(Cl)c23)cc1`, the GI50 is below 0.01 µM and the TGI amounted to 8.36 µM.

The subject of a further experiment is SW-620 colon. In words: NCI-60 cell line screen, 48 h.
As for `Nc1nc(SN=Nc2ccc(S(N)(=O)=O)cc2)c2[nH]cnc2n1`, the GI50 is 0.659 µM and the TGI was above 100 µM.

Turning to `COCCOc1cnc2ccn([C@H](C)c3nnc4c(F)cc(-c5cnn(C)c5)cn34)c(=O)c2c1`, the GI50 was above 100 µM and the TGI was above 100 µM.

Regarding `CCc1ccccc1NC(=O)c1sc2nc3c(cc2c1N)C(=O)CCC3`, the GI50 was 0.329 µM and the TGI was above 100 µM.

Consider `C[C@]12CC[C@@H]3c4ccc(O)cc4CC[C@H]3[C@@H]1CC[C@@H]2NS(=O)(=O)c1cccc(F)c1`, for which the GI50 is 4.36 µM and the TGI turned out to be 16.8 µM.

With `CCOC(=O)c1c[nH]c2oc(/C=N/N3CC(CN4CCOCC4)OC3=O)cc2c1=O` (stereo not drawn), the TGI was above 100 µM.

For the compound `COc1ccc(-c2oc3cc(O)c(OC)c(O)c3c(=O)c2OC)cc1O`, the GI50 was 0.0485 µM and the TGI is above 100 µM.
